Legend:
[1] = 100 kPa, Liquid, Frequency=0.01 MHz, Alternating current cell with electrodes
[2] = xn = mol fraction of the nth substance listed; details: 100 kPa, Liquid, Frequency=0.01 MHz, Alternating current cell with electrodes
[3] = mn = molality of the nth substance listed, in mol/kg; details: 100 kPa, Liquid, Frequency=0.01 MHz, Alternating current cell with electrodes

CCCO [propan-1-ol]
[1]
Details | electrical conductivity [S/m]
293.15 K | 1.51e-06
298.15 K | 1.8e-06
303.15 K | 2.16e-06
308.15 K | 2.38e-06

CCCO [propan-1-ol] + O
electrical conductivity [S/m], [2]
Details | x2 = 0 | x2 = 0.1 | x2 = 0.2 | x2 = 0.3 | x2 = 0.4 | x2 = 0.5 | x2 = 0.6 | x2 = 0.7 | x2 = 0.8
293.15 K | 1.51e-06 | 3.98e-06 | 8.35e-06 | 1.38e-05 | 1.71e-05 | 2.01e-05 | 2.54e-05 | 2.84e-05 | 3.15e-05
298.15 K | 1.8e-06 | 4.32e-06 | 8.31e-06 | 1.46e-05 | 1.86e-05 | 2.13e-05 | 2.55e-05 | 2.93e-05 | 3.36e-05
303.15 K | 2.16e-06 | 4.68e-06 | 1.03e-05 | 1.58e-05 | 1.92e-05 | 2.27e-05 | 2.68e-05 | 3.06e-05 | 3.5e-05
308.15 K | 2.38e-06 | 4.92e-06 | 8.6e-06 | 1.65e-05 | 2.01e-05 | 2.55e-05 | 2.96e-05 | 3.26e-05 | 3.75e-05

[I-].[Na+] [sodium iodide] + CCCO
[3]
Details | electrical conductivity [S/m]
293.15 K, m1 = 0.0007138 | 0.00107
298.15 K, m1 = 0.0009446 | 0.00154
303.15 K, m1 = 0.0007238 | 0.00135
308.15 K, m1 = 0.0006021 | 0.00126

From the NIST ThermoML archive (doi:10.1016/j.jct.2017.07.003)
